The results in this text go back to US6627628B1, “Substituted 4-amino-2-aryl-cyclopenta[d]pyrimidines, their production and use and pharmaceutical preparations containing same” (Aventis Pharma Deutschland, GmbH, priority 1998, dated 2003).

As usually defined, the melting point is the temperature of the solid-liquid transition.

For the compound `N#Cc1ccc(-c2nc3c(c(NCc4cccnc4)n2)CCC3)cc1` [Example 74, 2-(4-Cyanophenyl)-4-((3-pyridylmethyl)amino)-6,7-dihydro-5H-cyclopenta[d]-pyrimidine], the melting point worked out at 219 °C. In turn, `Clc1cccc(-c2nc3c(c(N4CCCC4)n2)CCC3)c1` [Example 36, 2-(3-Chlorophenyl)-4-pyrrolidino-6,7-dihydro-5H-cyclopenta[d]pyrimidine] registered a melting point of 150 °C. Turning to `COc1ccc(-c2nc3c(c(NC4CCCC4)n2)CCC3)cc1OC` [Example 63, 2-(3,4-Dimethoxyphenyl)-4-cyclopentylamino-6,7-dihydro-5H-cyclopenta[d]-pyrimidine], the melting point amounted to 138 °C. As for `Clc1cccc(-c2nc3c(c(NCc4cccnc4)n2)CCC3)c1` [Example 22, 2-(3-Chlorophenyl)-4-((3-pyridylmethyl)amino)-6,7-dihydro-5H-cyclopenta[d]-pyrimidine], the melting point amounted to 185 °C. Under `Clc1cccc(-c2nc3c(c(N4CCSCC4)n2)CCC3)c1` [Example 38, 2-(3-Chlorophenyl)-4-thiomorpholino-6,7-dihydro-5H-cyclopenta[d]pyrimidine] stands 134 °C; under `COc1ccc(-c2nc3c(c(N4CC(C)OC(C)C4)n2)CCC3)cc1OC` (stereo not shown) [Example 67, 2-(3,4-Dimethoxyphenyl)-4-(2,6-dimethylmorpholino)-6,7-dihydro-5H-cyclopenta[d]pyrimidine], 142 °C; under `OCCNc1nc(-c2cccc(Cl)c2)nc2c1CCC2` [Example 21, 2-(3-Chlorophenyl)-4-(2-hydroxyethylamino)-6,7-dihydro-5H-cyclopenta[d]-pyrimidine], 150 °C. On to `CCCN(CCC)c1nc(-c2ccc(OC)cc2)nc2c1CCC2` [Example 59, 2-(4-Methoxyphenyl)-4-dipropylamino-6,7-dihydro-5H-cyclopenta[d]pyrimidine], for which the melting point came to 74 °C. For the compound `N#Cc1ccc(-c2nc3c(c(N4CCOCC4)n2)CCC3)cc1` [Example 73, 2-(4-Cyanophenyl)-4-morpholino-6,7-dihydro-5H-cyclopenta[d]pyrimidine], the melting point was 247 °C.

For the compound `Clc1cccc(-c2nc3c(c(N4CCOCC4)n2)CCC3)c1` [Example 20, 2-(3-Chlorophenyl)-4-morpholino-6,7-dihydro-5H-cyclopenta[d]pyrimidine], the melting point came out at 132 °C.

The compound `Cc1ccc(-c2nc3c(c(NCCO)n2)CCC3)cc1` [Example 39, 2-(4-Methylphenyl)-4-(2-hydroxyethylamino)-6,7-dihydro-5H-cyclopenta[d]-pyrimidine] returned a melting point of 191 °C. As for `COCCCNc1nc(-c2ccc(OC)c(OC)c2)nc2c1CCC2` [Example 62, 2-(3,4-Dimethoxyphenyl)-4-(3-methoxypropylamino)-6,7-dihydro-5H-cyclopenta-[d]pyrimidine], the melting point stood at 107 °C. `OCCNc1nc(-c2ccc(Cl)cc2)nc2c1CCC2` [Example 18, 2-(4-Chlorophenyl)-4-(2-hydroxyethylamino)-6,7-dihydro-5H-cyclopenta[d]-pyrimidine] showed a melting point of 160 °C. Under `COc1ccc(-c2nc3c(c(NCCCO)n2)CCC3)cc1` [Example 54, 2-(4-Methoxyphenyl)-4-(3-hydroxypropylamino)-6,7-dihydro-5H-cyclopenta[d]-pyrimidine] stands 165 °C; under `Clc1ccc(-c2nc3c(c(N4CCSCC4)n2)CCC3)cc1` [Example 24, 2-(4-Chlorophenyl)-4-thiomorpholino-6,7-dihydro-5H-cyclopenta[d]pyrimidine], 159 °C. `COc1ccc(-c2nc3c(c(NC4CCCCC4)n2)CCC3)cc1` [Example 57, 2-(4-Methoxyphenyl)-4-cyclohexylamino-6,7-dihydro-5H-cyclopenta[d]-pyrimidine] gave a melting point of 138 °C. The compound `CC(C)CNc1nc(-c2ccc(Cl)cc2)nc2c1CCC2` [Example 29, 2-(4-Chlorophenyl)-4-isobutylamino-6,7-dihydro-5H-cyclopenta[d]pyrimidine] showed a melting point of 121 °C.

In the case of `Cc1ccc(-c2nc3c(c(N4CCCC4)n2)CCC3)cc1` [Example 46, 2-(4-Methylphenyl)-4-pyrrolidino-6,7-dihydro-5H-cyclopenta[d]pyrimidine], the melting point is 203 °C.

Regarding `Clc1ccc(-c2nc3c(c(NCc4cccnc4)n2)CCC3)cc1` [Example 19, 2-(4-Chlorophenyl)-4-((3-pyridylmethyl)amino)-6,7-dihydro-5H-cyclopenta[d]-pyrimidine], the melting point amounted to 209 °C.

Consider `COc1cccc(CCNc2nc(-c3cccc(Cl)c3)nc3c2CCC3)c1.Cl`, for which the melting point was 192 °C. In turn, `CCCCNc1nc(-c2ccc(OC)c(OC)c2)nc2c1CCC2` [Example 65, 2-(3,4-Dimethoxyphenyl)-4-butylamino-6,7-dihydro-5H-cyclopenta[d]pyrimidine] registered a melting point of 115 °C. For `COc1ccc(-c2nc3c(c(NC4CCCC4)n2)CCC3)cc1` [Example 56, 2-(4-Methoxyphenyl)-4-cyclopentylamino-6,7-dihydro-5H-cyclopenta[d]-pyrimidine], the melting point worked out at 154 °C. The compound `COc1cccc(CCNc2nc(-c3ccc(Cl)cc3)nc3c2CCC3)c1.Cl` had a melting point of 230 °C. Under `COc1ccc(-c2nc3c(c(N4CCOCC4)n2)CCC3)cc1` [Example 61, 2-(4-Methoxyphenyl)-4-morpholino-6,7-dihydro-5H-cyclopenta[d]pyrimidine] stands 192 °C.

The compound `CC1(C)CC(Nc2nc(-c3cccc(Cl)c3)nc3c2CCC3)CC(C)(C)N1` [Example 31, 2-(3-Chlorophenyl)-4-(2,2,6,6-tetramethylpiperidin-4-ylamino)-6,7-dihydro-5H-cyclopenta[d]pyrimidine] displayed a melting point of 182 °C.

On to `Clc1cc(Cl)cc(-c2nc3c(c(N4CCCCC4)n2)CCC3)c1` [Example 53, 2-(3,5-Dichlorophenyl)-4-piperidino-6,7-dihydro-5H-cyclopenta[d]pyrimidine], for which the melting point came to 147 °C. Under `Cl.Cl.Clc1ccc(-c2nc3c(c(N(Cc4ccccc4)C4CCNCC4)n2)CCC3)cc1` stands 275 °C; under `N#Cc1ccc(-c2nc3c(c(NCc4ccccc4)n2)CCC3)cc1` [Example 70, 2-(4-Cyanophenyl)-4-benzylamino-6,7-dihydro-5H-cyclopenta[d]pyrimidine], 168 °C. The compound `CCN(CC)c1nc(-c2ccc(C#N)cc2)nc2c1CCC2` [Example 71, 2-(4-Cyanophenyl)-4-diethylamino-6,7-dihydro-5H-cyclopenta[d]pyrimidine] gave a melting point of 130 °C. Turning to `CCCCNc1nc(-c2ccc(OC)cc2)nc2c1CCC2` [Example 55, 2-(4-Methoxyphenyl)-4-butylamino-6,7-dihydro-5H-cyclopenta[d]pyrimidine], the melting point was 119 °C.

As to `COc1ccc(-c2nc3c(c(NC4CCCCC4)n2)CCC3)cc1OC` [Example 64, 2-(3,4-Dimethoxyphenyl)-4-cyclohexylamino-6,7-dihydro-5H-cyclopenta[d]-pyrimidine], the melting point was 70 °C. For the compound `COCCNc1nc(-c2ccc(Cl)cc2)nc2c1CCC2.Cl`, the melting point amounted to 208 °C. Compound `CCCN(CCC)c1nc(-c2ccc(OC)c(OC)c2)nc2c1CCC2` [Example 66, 2-(3,4-Dimethoxyphenyl)-4-dipropylamino-6,7-dihydro-5H-cyclopenta[d]-pyrimidine] gave a melting point of 107 °C. Turning to `N#Cc1ccc(-c2nc3c(c(N4CCCCC4)n2)CCC3)cc1` [Example 72, 2-(4-Cyanophenyl)-4-piperidino-6,7-dihydro-5H-cyclopenta[d]pyrimidine], the melting point came to 152 °C.

`COc1ccc(-c2nc3c(c(N(CCO)CCO)n2)CCC3)cc1OC` [Example 68, 2-(3,4-Dimethoxyphenyl)-4-(di-(2-hydroxyethyl)amino)-6,7-dihydro-5H-cyclopenta[d]pyrimidine] had a melting point of 115 °C.

Regarding `COc1ccc(-c2nc3c(c(NCCc4ccccc4Cl)n2)CCC3)cc1` [Example 58, 2-(4-Methoxyphenyl)-4-(2-(2-chlorophenyl)ethylamino)-6,7-dihydro-5H-cyclopenta[d]pyrimidine], the melting point was 145 °C. Regarding `COCCCNc1nc(-c2ccc(C#N)cc2)nc2c1CCC2` [Example 69, 2-(4-Cyanophenyl)-4-(3-methoxypropylamino)-6,7-dihydro-5H-cyclopenta[d]-pyrimidine], the melting point turned out to be 130 °C. In the case of `CCCN(CCC)c1nc(-c2cc(Cl)cc(Cl)c2)nc2c1CCC2` [Example 52, 2-(3,5-Dichlorophenyl)-4-dipropylamino-6,7-dihydro-5H-cyclopenta[d]pyrimidine], the melting point came to 120 °C. Under `COc1ccc(-c2nc3c(c(N4CCCCCC4)n2)CCC3)cc1` [Example 60, 2-(4-Methoxyphenyl)-4-hexamethyleneimino-6,7-dihydro-5H-cyclopenta[d]-pyrimidine] stands 99 °C. `Cc1ccc(-c2nc3c(c(N4CCSCC4)n2)CCC3)cc1` [Example 47, 2-(4-Methylphenyl)-4-thiomorpholino-6,7-dihydro-5H-cyclopenta[d]pyrimidine] displayed a melting point of 160 °C.
